According to US4721808A, “Process for purification of crude p-hydroxymethylbenzoic acid” (Amoco Corporation, priority 1987, dated 1988):

Test: Solubilities of pHMBA and Impurities in Water
Assay type: physicochemical
Experimental: Since solubilities of p-hydroxymethylbenzoic acid and impurities in solvents depend upon the temperature at which the reaction takes place, increased product production is obtained by increased temperature and pressure.
Solubilities of pHMBA and Impurities in Water
Solubility (g/100 ml H2 O)

Row | SMILES | Solubility at 20° C. | Solubility at 100° C.
1 | O=Cc1ccc(C(=O)O)cc1 [4-CBA, 4-carboxybenzaldehyde] | < 0.005 g/100 ml H2 O | ~ 0.25 g/100 ml H2 O
2 | O=C(O)c1ccc(C(=O)O)cc1 [Terephthalic Acid, terephthalic acid] | < 0.005 g/100 ml H2 O | 0.03 g/100 ml H2 O
3 | Cc1ccc(C(=O)O)cc1 [p-Toluic Acid, p-toluic acid] | 0.02 g/100 ml H2 O | 0.22 g/100 ml H2 O
4 | O=C(O)c1ccc(CO)cc1 [pHMBA, p-hydroxymethylbenzoic acid] | ~ 0.5 g/100 ml H2 O | ~ 10.0 g/100 ml H2 O
